≈ marks a conversion by molar mass, not a printed value. Calls of active or inactive are those of the source. The rule behind the calls is not given here.
Columns and labels:
Bemisia tabaci [1] = experiment: Insecticidal activity against Bemisia tabaci (sweet potato whitefly) at second instar larvae stage in compound treated cucumber leaves assessed as mortality measured as dry larvae and detached from leaf at 25 +/- 1 degC, 70 +/- 5% RH after 7 days; format: functional; conditions: 168 h
Bemisia tabaci [2] = experiment: Insecticidal activity against adult female Bemisia tabaci (sweet potato whitefly) in compound treated cucumber leaves assessed as mortality at 2000 ppm at 25 +/- 1 degC, 70 +/- 5% RH after 48 hr (reference value: 9.3%); format: functional
Bemisia tabaci [3] = experiment: Insecticidal activity against adult female Bemisia tabaci (sweet potato whitefly) in compound treated cucumber leaves assessed as mortality at 10000 ppm at 25 +/- 1 degC, 70 +/- 5% RH after 48 hr (reference value: 9.3%); format: functional
Bemisia tabaci [4] = experiment: Insecticidal activity against male Bemisia tabaci (sweet potato whitefly) in compound treated cucumber leaves assessed as mortality at 2000 ppm at 25 +/- 1 degC, 70 +/- 5% RH after 48 hr (reference value: 6.3%); format: functional
Bemisia tabaci [5] = experiment: Insecticidal activity against Bemisia tabaci (sweet potato whitefly) at egg stage in compound treated cucumber leaves assessed as egg hatch at 8000 ppm at 25 +/- 1 degC, 70 +/- 5% RH after 10 days (reference value: 91%); format: functional
Bemisia tabaci [6] = experiment: Insecticidal activity against adult female Bemisia tabaci (sweet potato whitefly) in compound treated cucumber leaves assessed as egg hatch at LC25 concentration at 25 +/- 1 degC, 70 +/- 5% RH after 48 hr (reference value: […]); format: functional
Bemisia tabaci [7] = experiment: Insecticidal activity against adult female Bemisia tabaci (sweet potato whitefly) in compound treated cucumber leaves assessed as laid eggs at LC25 concentration at 25 +/- 1 degC, 70 +/- 5% RH after 48 hr; format: functional, organism-based
Bemisia tabaci [8] = experiment: Insecticidal activity against male Bemisia tabaci (sweet potato whitefly) in compound treated cucumber leaves assessed as mortality at 10000 ppm at 25 +/- 1 degC, 70 +/- 5% RH after 48 hr (reference value: 6.3%); format: functional
Bemisia tabaci [9] = experiment: Insecticidal activity against adult female Bemisia tabaci (sweet potato whitefly) in compound treated cucumber leaves assessed as offspring sex ratio at LC25 concentration at 25 +/- 1 degC, 70 +/- 5% RH after 48 hr (Rvb Female/Female + male)= 0.60 no unit); format: functional
Bemisia tabaci [10] = experiment: Insecticidal activity against Bemisia tabaci (sweet potato whitefly) at egg stage in compound treated cucumber leaves assessed as egg hatch at 10000 ppm at 25 +/- 1 degC, 70 +/- 5% RH after 10 days (reference value: 91%); format: functional
Bemisia tabaci [11] = experiment: Insecticidal activity against adult female Bemisia tabaci (sweet potato whitefly) in compound treated cucumber leaves assessed as mortality at 8000 ppm at 25 +/- 1 degC, 70 +/- 5% RH after 48 hr (reference value: 9.3%); format: functional
Bemisia tabaci [12] = experiment: Insecticidal activity against Bemisia tabaci (sweet potato whitefly) at egg stage in compound treated cucumber leaves assessed as egg hatch at 2000 ppm at 25 +/- 1 degC, 70 +/- 5% RH after 10 days (reference value: 91%); format: functional
Bemisia tabaci [13] = experiment: Insecticidal activity against Bemisia tabaci (sweet potato whitefly) at first instar larvae stage in compound treated cucumber leaves assessed as mortality measured as dry larvae and detached from leaf at 25 +/- 1 degC, 70 +/- 5% RH after 7 days; format: functional; conditions: 168 h
Bemisia tabaci [14] = experiment: Insecticidal activity against Bemisia tabaci (sweet potato whitefly) at pupae stage in compound treated cucumber leaves assessed as mortality measured as dry larvae and detached from leaf at 25 +/- 1 degC, 70 +/- 5% RH after 7 days; format: functional; conditions: 168 h
Bemisia tabaci [15] = experiment: Insecticidal activity against male Bemisia tabaci (sweet potato whitefly) in compound treated cucumber leaves assessed as mortality at 8000 ppm at 25 +/- 1 degC, 70 +/- 5% RH after 48 hr (reference value: 6.3%); format: functional
Bemisia tabaci [16] = experiment: Insecticidal activity against Bemisia tabaci (sweet potato whitefly) at third instar larvae stage in compound treated cucumber leaves assessed as mortality measured as dry larvae and detached from leaf at 25 +/- 1 degC, 70 +/- 5% RH after 7 days; format: functional; conditions: 168 h
Bemisia tabaci [17] = experiment: Insecticidal activity against adult female Bemisia tabaci (sweet potato whitefly) in compound treated cucumber leaves assessed as longevity at LC25 concentration at 25 +/- 1 degC, 70 +/- 5% RH after 48 hr (reference value: 8.31 days); format: functional
Bemisia tabaci [18] = experiment: Insecticidal activity against male Bemisia tabaci (sweet potato whitefly) in compound treated cucumber leaves assessed as mortality after 48 hr; format: functional
Bemisia tabaci [19] = experiment: Insecticidal activity against adult female Bemisia tabaci (sweet potato whitefly) in compound treated cucumber leaves assessed as mortality after 48 hr; format: functional
Bemisia tabaci [20] = experiment: Insecticidal activity against Bemisia tabaci (sweet potato whitefly) at egg stage in compound treated cucumber leaves assessed as mortality measured as failure to hatch at 25 +/- 1 degC, 70 +/- 5% RH after 10 days; format: functional; conditions: 240 h

SMILES: CC(C)N1C(=O)N(c2ccccc2)CS/C1=N\C(C)(C)C [BUPROFEZIN]
- LC50 (Bemisia tabaci [1]): 10.9 µg/mL (≈ 35.8 µM)
- mortality at 2000 ppm (Bemisia tabaci [2]): 8%
- mortality at 10000 ppm (Bemisia tabaci [3]): 9.3%
- mortality at 2000 ppm (Bemisia tabaci [4]): 11.3%
- Activity (Bemisia tabaci [5]): 68%
- Activity (Bemisia tabaci [6]): 66%
- Activity (Bemisia tabaci [7]): Active
- mortality at 10000 ppm (Bemisia tabaci [8]): 19%
- Ratio (Bemisia tabaci [9]): 0.5
- Activity (Bemisia tabaci [10]): 72%
- mortality at 8000 ppm (Bemisia tabaci [11]): 8%
- Activity (Bemisia tabaci [12]): 88%
- LC50 (Bemisia tabaci [13]): 0.99 µg/mL (≈ 3.24 µM)
- LC50 (Bemisia tabaci [14]): 979 µg/mL (≈ 3210 µM)
- mortality at 8000 ppm (Bemisia tabaci [15]): 10%
- LC50 (Bemisia tabaci [16]): 44.7 µg/mL (≈ 146 µM)
- Time (Bemisia tabaci [17]): 4.85 days

SMILES: O=[N+]([O-])/N=C1\NCCN1Cc1ccc(Cl)nc1 [IMIDACLOPRID]
- LC50 (Bemisia tabaci [1]): 85.4 µg/mL (≈ 334 µM)
- LC50 (Bemisia tabaci [18]): 11.8 µg/mL (≈ 46.2 µM)
- LC25 (Bemisia tabaci [19]): 4.64 ppm
- LC50 (Bemisia tabaci [19]; Bemisia tabaci, 48 h): 71.6 µg/mL (≈ 280 µM)
- Activity (Bemisia tabaci [6]): 87.42%
- Activity (Bemisia tabaci [7]): inactive
- Ratio (Bemisia tabaci [9]): 0.56
- LC50 (Bemisia tabaci [13]): 19.3 µg/mL (≈ 75.5 µM)
- LC50 (Bemisia tabaci [14]): 2850 µg/mL (≈ 11200 µM)
- LC50 (Bemisia tabaci [20]): 151 µg/mL (≈ 591 µM)
- LC50 (Bemisia tabaci [16]): 335 µg/mL (≈ 1310 µM)
- Time (Bemisia tabaci [17]): 11.7 days

— ChEMBL document CHEMBL3046586, “Lethal and sublethal effects of buprofezin and imidacloprid on Bemisia tabaci (Hemiptera: Aleyrodidae)” (2011)
